We go through eight molecules from ChEMBL document CHEMBL1152059, “Novel inhibitors of influenza sialidases related to zanamivir. Heterocyclic replacements of the glycerol sidechain” (Bioorg Med Chem Lett, 1997).

For the assay, the target named is Neuraminidase (Influenza A virus (A/Puerto Rico/8/1934(H1N1)), UniProt P03468). As to the kind of experiment: Inhibitory activity against influenza A virus sialidase.

A word on the IC50: it is the concentration needed to halve the response being measured. The low end stands for inhibition by little substance, the high end for a need for much substance. For `CCCn1nc(Cc2ccccc2)nc1[C@@H]1OC(C(=O)OC(c2ccccc2)c2ccccc2)=C[C@H](NC(=O)OC(C)(C)C)[C@H]1NC(C)=O`, inhibition was half-maximal at 0.07 µM (IC50). `CC(=O)N[C@@H]1[C@@H](N)C=C(C(=O)O)O[C@H]1c1nc(C)no1` registered an IC50 of 23 µM. Turning to `CC(=O)N[C@@H]1[C@@H](N)C=C(C(=O)O)O[C@H]1c1nc(Cc2ccccc2)no1`, the IC50 was determined as 99 µM. This IC50 is about 4.3-fold higher than that of the molecule before. With `CC(=O)N[C@@H]1[C@@H](NC(=O)OC(C)(C)C)C=C(C(=O)OC(c2ccccc2)c2ccccc2)O[C@H]1c1nnc(Cc2ccccc2)[nH]1` the figure was 87 µM; with `CC(=O)N[C@@H]1[C@@H](N)C=C(C(=O)O)O[C@H]1c1nc(-c2ccccc2)no1`, 14 µM; with `CCCn1nc([C@@H]2OC(C(=O)OC(c3ccccc3)c3ccccc3)=C[C@H](NC(=O)OC(C)(C)C)[C@H]2NC(C)=O)nc1Cc1ccccc1`, 12 µM. The result for `CCCCc1nnc([C@@H]2OC(C(=O)O)=C[C@H](N)[C@H]2NC(C)=O)n1CCC` reads 0.33 µM; that for `CCCCc1noc([C@@H]2OC(C(=O)O)=C[C@H](N)[C@H]2NC(C)=O)n1`, 56 µM.
